Our source for the inhibition values is paper PMC8041284, “Tunable Methacrylamides for Covalent Ligand Directed Release Chemistry” (Journal of the American Chemical Society, 2021).

In this test the target is BTK (Homo sapiens, UniProt Q06187). The test can be described thus: biochemical.
Setting [1] is: read-out: BTK inhibition (%), 0.75 uM BTK, […] probe 3l, 15 min preincubation.

Molecules are shown by their SMILES. Like-named read-outs stand apart in the source and are kept apart here.

BTK, sequence (Q06187 402-655 limits assumed): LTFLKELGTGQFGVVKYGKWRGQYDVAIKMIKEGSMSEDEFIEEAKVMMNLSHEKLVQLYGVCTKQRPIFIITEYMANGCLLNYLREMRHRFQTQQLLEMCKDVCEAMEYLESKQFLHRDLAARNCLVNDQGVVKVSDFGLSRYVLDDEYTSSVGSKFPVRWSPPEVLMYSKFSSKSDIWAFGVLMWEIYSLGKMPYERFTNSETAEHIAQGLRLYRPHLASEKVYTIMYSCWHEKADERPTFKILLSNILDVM

As to `C[C@H]1[C@H](C)CC[C@]2(C(=O)O)CC[C@]3(C)C(=CC[C@@H]4[C@@]5(C)C[C@@H](O)[C@H](O)C(C)(C)[C@@H]5CC[C@]43C)[C@H]12` [PCM-0216596], the inhibition at 10 µM under setting [1] was found to be 6.2%.
Turning to `O=C1C(c2[nH]c3ccc(S(=O)(=O)O)cc3c2O)=Nc2ccc(S(=O)(=O)O)cc21` [PCM-0216597], under setting [1], the inhibition at 10 µM turned out to be 23.9%.
As to `CC(=O)O[C@@H]1CC[C@@]2(C)[C@@H](CC[C@]3(C)[C@@H]2C(=O)C=C2[C@@H]4[C@@H](C)[C@H](C)CC[C@]4(C)CC[C@]23C)[C@@]1(C)C(=O)O` [PCM-0216599], the inhibition at 10 µM under setting [1] was found to be 88%.
On the same count and under the same terms, for `CO[C@H]1[C@@H](O)[C@H](O[C@@H]2[C@@H](C)O[C@@H](O[C@H]3CC[C@@]4(C)[C@@H](CC[C@@]56O[C@@]57CC[C@@H](C(C)=O)[C@@]7(C)[C@H](OC(C)=O)[C@@H](OC(=O)c5ccccc5)[C@H]46)C3)C[C@H]2OC)O[C@H](C)[C@H]1O` [PCM-0216600] the value was -12.4%; for `O=c1cc(-c2ccc(O)cc2)oc2cc(O)c([C@@H]3O[C@H](CO)[C@@H](O)[C@H](O)[C@H]3O)c(O)c12` [PCM-0216601], 11.6%; for `COc1cc(O)c2c(c1)oc(=O)c1c3cc(O)c(O)cc3oc21` [PCM-0216602], 47.9%.
In the case of `CC1=C[C@@H]2C(=O)[C@]3(C=C(C)[C@H](O)[C@@]3(O)[C@@H]1O)[C@H](C)C[C@@H]1[C@H]2C1(C)C` [PCM-0216603], the inhibition at 10 µM (read-out: BTK inhibition (%)) was 3.9%.
Consider `C=C(C)[C@@H]1CC[C@]2(C(=O)O)CC[C@]3(C)[C@H](CC[C@@H]4[C@@]5(C)CC[C@H](O)[C@@](C)(CO)[C@@H]5CC[C@]43C)[C@@H]12` [PCM-0216604], for which, under setting [1], the inhibition at 10 µM is 26.3%.
Consider `C=C(C)[C@@H]1CC[C@]2(C(=O)O)CC[C@]3(C)[C@H](CC[C@@H]4[C@@]5(C)CC[C@H](OC(=O)CC(C)(C)C(=O)O)C(C)(C)[C@@H]5CC[C@]43C)[C@@H]12` [PCM-0216605], for which the inhibition at 10 µM under setting [1] turned out to be 17.8%.
`C[C@@H]1CC[C@@]2(NC1)O[C@H]1C[C@H]3[C@@H]4CC=C5C[C@@H](O[C@@H]6O[C@H](CO)[C@@H](O[C@@H]7O[C@@H](C)[C@H](O)[C@@H](O)[C@H]7O)[C@H](O)[C@H]6O)CC[C@]5(C)[C@H]4CC[C@]3(C)[C@H]1[C@@H]2C` [PCM-0216606]: for the setting “read-out: BTK inhibition (%)”, the inhibition at 10 µM is -6.9%.
As for `C/C=C(/C)C(=O)OC(C)(C)[C@@H]1Cc2c(ccc3ccc(=O)oc23)O1` [PCM-0216607], the inhibition at 10 µM under setting [1] was -23.9%.
The same measure, in the same setting: for `CC1(C)CC[C@]2(C(=O)O)[C@H](O)C[C@]3(C)C(=CC[C@@H]4[C@@]5(C)CC[C@H](O)[C@@](C)(C=O)[C@@H]5CC[C@]43C)[C@@H]2C1` [PCM-0216608] the value was -8.5%.
As for `CC(C)=CCC[C@@](C)(O)[C@H]1CC[C@]2(C)[C@@H]1[C@H](O)C[C@@H]1[C@@]3(C)CC[C@H](O[C@@H]4O[C@H](CO)[C@@H](O)[C@H](O)[C@H]4O[C@@H]4O[C@H](CO)[C@@H](O)[C@H](O)[C@H]4O)C(C)(C)[C@@H]3CC[C@]12C` [PCM-0216609], under setting [1], the inhibition at 10 µM amounted to 21.6%.
Consider `CC(C)=CCC[C@](C)(O)[C@H]1CC[C@]2(C)[C@@H]1[C@H](O)C[C@@H]1[C@@]3(C)CC[C@H](O[C@@H]4O[C@H](CO)[C@@H](O)[C@H](O)[C@H]4O[C@@H]4O[C@H](CO)[C@@H](O)[C@H](O)[C@H]4O)C(C)(C)[C@@H]3CC[C@]12C` [PCM-0216610], for which the inhibition at 10 µM under setting [1] worked out at 16.2%.
On the same count and under the same terms, for `CC1(C)CC[C@]2(C(=O)O)CC[C@]3(C)C(=CC[C@@H]4[C@@]5(C)C[C@@H](O)[C@H](O)C(C)(C)[C@@H]5CC[C@]43C)[C@@H]2C1` [PCM-0216611] the value was 20.1%.
Turning to `CC1=CC(=O)[C@H]2C[C@@H]1C2(C)C` [PCM-0216612], under setting [1], the inhibition at 10 µM came to 7.7%.
On the same count and under the same terms, for `O=CCc1ccccc1` [PCM-0216613] the value was 6.9%; for `CCCCCCCCCC(=O)OCC(COC(=O)CCCCCCCCC)OC(=O)CCCCCCCCC` [PCM-0216614], 11.6%; for `COc1cc2oc(-c3ccccc3)cc(=O)c2c(OC)c1OC` [PCM-0216616], -34%.
On to `CSCCC(N)C(=O)O` (centres unmarked) [PCM-0216617], for which the inhibition at 10 µM under setting [1] was 17.9%.
